Assay results from patent US10703764B2, “Benzopiperazine compositions as BET bromodomain inhibitors” (FORMA Therapeutics, Inc., priority 2013, dated 2020).

What was measured:
MV4-11 cells = experiment: Oncology cell growth assay (3-day proliferation, CellTiter-Glo); assay type: cell-based; details: Homo sapiens, MV4-11, 72 h, AML cell line MV4-11, 72 hours, compounds grouped by IC50 range, read-out: MV4-11 IC50 (inhibition of proliferation, gIC50)
Experimental: The impact of Example compounds on cancer cell proliferation was determined using the acute myelocytic leukemia (AML) cell line MV4-11 (ATCC) in a 3-day proliferation assay. MV4-11 cells were maintained in RPMI 1640 media supplemented with 10% FBS at 37° C. and an atmosphere of 5% CO2. For compound testing, compound dilutions series were prepared in DMSO via a 3-fold serial dilution from 2 mM to 0.001 mM in 384-well white flat bottom plates. The final compound concentrations in the wells were 10, 3.3, 1.1, 0.37, 0.12, 0.041, 0.013 and 0.0045 μM. MV4-11 cells were plated at a density of 3000 cells/well in final volume of 50 μl culture media and incubated for 72 hours. […] Luminescent signal from the CellTiter-Glo assay was read on an EnVision multilabel plate reader (PerkinElmer). Values for the concentration that inhibited cell growth by 50% (gIC50) between the DMSO control and background control (no cells) were determined using IDBS Activity Base software with a four parameter logistic curve fit by the equation y=A+((B−A)/(1+((C/x)^D))), wherein A denotes the bottom plateau of the curve, B denotes the top plateau of the curve, C denotes the x value at the middle of the curve, D denotes the slope factor, x denotes the original known x values, and y denotes the original known y values. Data was fitted using the Levenburg Marquardt algorithm.

BRD4 BD1 = molecular target: T1, BRD4 BD1 (Homo sapiens, UniProt O60885); experiment: AlphaScreen binding assay, BRD4 Bromodomain 1
T1 construct: made in house
Summary of the method: (§1)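 An AlphaScreen competition format was used with His-BRD4 BD1 or BD2 and biotin-H4 K5/8/12/16-acetyl peptide, each at matched final levels of 50 nM (BD1) or 100 nM (BD2). Incubation in HEPES/NaCl buffer with 0.1% BSA and 0.01% Triton X-100 ran ≥1 h before IC50 determination.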

BRD4 BD2 = molecular target: T2, BRD4 BD2 (Homo sapiens, UniProt O60885); experiment: AlphaScreen binding assay, BRD4 Bromodomain 2
T2 construct: made in house
Summary of the method: as §1

IC50 (MV4-11 cells) [µM]	IC50 (BRD4 BD1) [µM]	IC50 (BRD4 BD2) [µM]	SMILES
> 0.5	0.1 to 1	–	CC(=O)N1c2ccc(-c3cnn(C4CN[C@H]4C)c3)cc2N(C(=O)OC2CC(F)(F)C2)C[C@@H]1C (mixture of isomers) [Example I-168, 3,3-difluorocyclobutyl (3S)-4-acetyl-3-methyl-7-{1-[(2S)-2-methylazetidin-3-yl]-1H-pyrazol-4-yl}-1,2,3,4-tetrahydroquinoxaline-1-carboxylate]
0.1 to 0.5	0.1 to 1	–	CC(=O)N1c2ccc(-c3cnn(C4CCNC(=O)C4)c3)cc2N(C(=O)OC2CCC2)C[C@@H]1C (single isomer, unassigned) [Example I-176]
0.1 to 0.5	0.1 to 1	–	CC(=O)N1c2ccc(-c3cnn(C4CS(=O)(=O)C4)c3)cc2N(C(=O)OC2CC(F)(F)C2)C[C@@H]1C [Example I-1, 3,3-difluorocyclobutyl (3S)-4-acetyl-7-[1-(1,1-dioxo-1λ^6-thietan-3-yl)-1H-pyrazol-4-yl]-3-methyl-1,2,3,4-tetrahydroquinoxaline-1-carboxylate]
< 0.1	< 0.1	–	CC(=O)N1c2ccc(-c3cnn(C4CCS(=O)(=O)CC4)c3)cc2N(C(=O)OC2CCC2)C[C@@H]1C [Example I-154, cyclobutyl (3S)-4-acetyl-7-[1-(1,1-dioxo-1λ^6-thian-4-yl)-1H-pyrazol-4-yl]-3-methyl-1,2,3,4-tetrahydroquinoxaline-1-carboxylate]
> 0.5	0.1 to 1	–	CC(=O)N1c2ccc(-c3cnn(C4CCS(=O)(=O)CC4)c3)cc2N(C(=O)OC(C)C)C[C@@H]1C [Example I-156, propan-2-yl (3S)-4-acetyl-7-[1-(1,1-dioxo-1λ^6-thian-4-yl)-1H-pyrazol-4-yl]-3-methyl-1,2,3,4-tetrahydroquinoxaline-1-carboxylate]
< 0.1	0.1 to 1	–	CC(=O)N1c2ccc(-c3cnn(C4CN[C@H]4C)c3)cc2N(C(=O)OC(C)C)C[C@@H]1C (stereo partly drawn) [Example I-159, propan-2-yl (3S)-4-acetyl-3-methyl-7-{1-[(2S)-2-methylazetidin-3-yl]-1H-pyrazol-4-yl}-1,2,3,4-tetrahydroquinoxaline-1-carboxylate]
< 0.1	0.1 to 1	–	CC(=O)N1c2ccc(-c3cnn(C4CN[C@H]4C)c3)cc2N(C(=O)C2CC2)C[C@@H]1C (stereo partly drawn) [Example I-160, 1-[(2S)-4-cyclopropanecarbonyl-2-methyl-6-{1-[(2S)-2-methylazetidin-3-yl]-1H-pyrazol-4-yl}-1,2,3,4-tetrahydroquinoxalin-1-yl]ethan-1-one]
0.1 to 0.5	0.1 to 1	–	CC(=O)N1c2ccc(-c3cnn(C4CCNC(=O)C4)c3)cc2N(C(=O)OC2CCOCC2)C[C@@H]1C (stereo partly drawn) [Example I-163, oxan-4-yl (3S)-4-acetyl-3-methyl-7-[1-(2-oxopiperidin-4-yl)-1H-pyrazol-4-yl]-1,2,3,4-tetrahydroquinoxaline-1-carboxylate]
> 0.5	0.1 to 1	–	CC(=O)N1c2ccc(-c3cnn(C4CCNC(=O)C4)c3)cc2N(C(=O)OC2CC(F)(F)C2)C[C@@H]1C (stereo partly drawn) [Example I-164, 3,3-difluorocyclobutyl (3S)-4-acetyl-3-methyl-7-[1-(2-oxopiperidin-4-yl)-1H-pyrazol-4-yl]-1,2,3,4-tetrahydroquinoxaline-1-carboxylate]
0.1 to 0.5	0.1 to 1	–	CC(=O)N1c2ccc(-c3cnn(C4CCNC(=O)C4)c3)cc2N(C(=O)OC2CCC(F)(F)CC2)C[C@@H]1C (stereo partly drawn) [Example I-165, 4,4-difluorocyclohexyl (3S)-4-acetyl-3-methyl-7-[1-(2-oxopiperidin-4-yl)-1H-pyrazol-4-yl]-1,2,3,4-tetrahydroquinoxaline-1-carboxylate]
0.1 to 0.5	0.1 to 1	–	CC(=O)N1c2ccc(-c3cnn(C4CCNC(=O)C4)c3)cc2N(C(=O)OC(C)C)C[C@@H]1C (stereo partly drawn) [Example I-166, propan-2-yl (3S)-4-acetyl-3-methyl-7-[1-(2-oxopiperidin-4-yl)-1H-pyrazol-4-yl]-1,2,3,4-tetrahydroquinoxaline-1-carboxylate]
0.1 to 0.5	0.1 to 1	–	CC(=O)N1c2ccc(-c3cnn(C4CCNC(=O)C4)c3)cc2N(C(=O)C2CC2)C[C@@H]1C (stereo partly drawn) [Example I-167, 4-{4-[(2S)-1-acetyl-4-cyclopropanecarbonyl-2-methyl-1,2,3,4-tetrahydroquinoxalin-6-yl]-1H-pyrazol-1-yl}piperidin-2-one]
> 0.5	0.1 to 1	–	CC(=O)N1c2ccc(-c3cnn(C4CCS(=O)(=O)CC4)c3)cc2N(C(=O)OCC2CC2)C[C@@H]1C [Example I-169, cyclopropylmethyl (3S)-4-acetyl-7-[1-(1,1-dioxo-1λ^6-thian-4-yl)-1H-pyrazol-4-yl]-3-methyl-1,2,3,4-tetrahydroquinoxaline-1-carboxylate]
0.1 to 0.5	0.1 to 1	–	CC(=O)N1c2ccc(-c3cnn(C4CN[C@@H]4C)c3)cc2N(C(=O)OC2CCC2)C[C@@H]1C (stereo partly drawn) [Example I-170, cyclobutyl (3S)-4-acetyl-3-methyl-7-{1-[(2R)-2-methylazetidin-3-yl]-1H-pyrazol-4-yl}-1,2,3,4-tetrahydroquinoxaline-1-carboxylate]
> 0.5	0.1 to 1	–	CC(=O)N1c2ccc(-c3cnn([C@@H]4CCCS(=O)(=O)C4)c3)cc2N(C(=O)OCC2CC2)C[C@@H]1C [Example I-171, cyclopropylmethyl (3S)-4-acetyl-7-{1-[(3R)-1,1-dioxo-1λ^6-thian-3-yl]-1H-pyrazol-4-yl}-3-methyl-1,2,3,4-tetrahydroquinoxaline-1-carboxylate]
–	1 to 10	0.05 to 0.5	CC(=O)N1c2ccc(-c3ccc4c(c3)CCN4S(C)(=O)=O)cc2N(C(=O)Oc2cccnc2)C[C@@H]1C [Example I-1290]

IC50 (MV4-11 cells) [µM]	IC50 (BRD4 BD1) [µM]	IC50 (BRD4 BD2) [µM]	SMILES
–	1 to 10	> 0.5	COC(=O)N1c2ccc(-c3ccc4c(c3)CCN4S(C)(=O)=O)cc2N(C(=O)Oc2cccnc2)C[C@@H]1C [Example I-1291]
–	1 to 10	> 0.5	COC(=O)N1c2ccc(-c3ccc(N(C)S(C)(=O)=O)cc3)cc2N(C(=O)Oc2cccnc2)C[C@@H]1C [Example I-1293]
–	1 to 10	0.05 to 0.5	COC(=O)N1c2ccc(-c3cnn(C(C)(C)CO)c3)cc2N(C(=O)Oc2ccccn2)C[C@@H]1C [Example I-1313]
–	1 to 10	0.05 to 0.5	CC(=O)N1c2ccc(-c3ccc(S(C)(=O)=O)cc3)cc2N(C(=O)Oc2ccccn2)C[C@@H]1C [Example I-1314]
–	1 to 10	0.05 to 0.5	COC(=O)N1c2ccc(-c3ccc(S(C)(=O)=O)cc3)cc2N(C(=O)Oc2ccccn2)C[C@@H]1C [Example I-1315]
–	1 to 10	0.05 to 0.5	COC(=O)N1c2ccc(-c3ccc(NS(C)(=O)=O)cc3)cc2N(C(=O)Oc2ccccn2)C[C@@H]1C [Example I-1317]
–	1 to 10	0.05 to 0.5	CC(=O)N1c2ccc(-c3cnn(CCS(C)(=O)=O)c3)cc2N(C(=O)Oc2ccccn2)C[C@@H]1C [Example I-1318]
–	1 to 10	0.05 to 0.5	COC(=O)N1c2ccc(-c3cnn(CCS(C)(=O)=O)c3)cc2N(C(=O)Oc2ccccn2)C[C@@H]1C [Example I-1319]
–	1 to 10	0.05 to 0.5	CC(=O)N1c2ccc(-c3cnn(CC(C)(C)O)c3)cc2N(C(=O)Oc2ccccn2)C[C@@H]1C [Example I-1320]
–	1 to 10	0.05 to 0.5	COC(=O)N1c2ccc(-c3cnn(CC(C)(C)O)c3)cc2N(C(=O)Oc2ccccn2)C[C@@H]1C [Example I-1321]
–	1 to 10	0.05 to 0.5	COC(=O)N1c2ccc(-c3ccc(N4CCCS4(=O)=O)cc3)cc2N(C(=O)Oc2ccccn2)C[C@@H]1C [Example I-1325]
–	1 to 10	0.05 to 0.5	COC(=O)N1c2ccc(-c3cnn(CCC#N)c3)cc2N(C(=O)Oc2ccccn2)C[C@@H]1C [Example I-1327]
–	1 to 10	0.05 to 0.5	COC(=O)N1c2ccc(-c3ccc4c(c3)CCN4S(C)(=O)=O)cc2N(C(=O)Oc2ccccn2)C[C@@H]1C [Example I-1329]
–	1 to 10	0.05 to 0.5	COC(=O)N1c2ccc(-c3ccc(N(C)S(C)(=O)=O)cc3)cc2N(C(=O)Oc2ccccn2)C[C@@H]1C [Example I-1331]
–	1 to 10	0.05 to 0.5	COC(=O)N1c2ccc(-c3cnn(CCO)c3)cc2N(C(=O)Oc2ccccn2)C[C@@H]1C [Example I-1335]

SMILES	IC50 (MV4-11 cells) [µM]	IC50 (BRD4 BD1) [µM]	IC50 (BRD4 BD2) [µM]
COC(=O)N1c2ccc(-c3cnn(C4CNC4)c3)cc2N(C(=O)Oc2cccnc2)C[C@@H]1C [Example I-1295]	–	1 to 10	0.05 to 0.5
COC(=O)N1c2ccc(-c3cnn(C4CCNCC4)c3)cc2N(C(=O)Oc2cccnc2)C[C@@H]1C [Example I-1296]	–	1 to 10	0.05 to 0.5
COC(=O)N1c2ccc(-c3cnn(C4CCNCC4)c3)cc2N(C(=O)Oc2ccccn2)C[C@@H]1C [Example I-1333]	–	1 to 10	0.05 to 0.5
